Test results from patent US20120315248A1 (priority 2009, published 2012).

Columns and labels:
human fibroblasts = type: cell-based
[1] = test system: MxA, ISG-15, OAS-1, and ISG-56 mRNA; type: cell-based, human

Row | Molecule | protection of fibroblasts from VSV (human fibroblasts) | basal ISG mRNA levels in SW-R [1]
1 | IFN-α | completely protect | 
2 | CCCC(CCC)C(=O)O [VPA, valproic acid] |  | reduced basal mRNA levels for three out of four ISGs
